{
  "source": "paper PMC4992173",
  "about": "“Divergent synthesis and identification of the cellular targets of deoxyelephantopins” (Nature Communications, 2016)",
  "biological_target": "T1, FLYWCH family member 2 (FLYWCH2) (Homo sapiens, UniProt Q96CP2)",
  "T1 construct": "endogenous in cells; host or cells: MCF7",
  "T1 sequence (Q96CP2 whole entry)": "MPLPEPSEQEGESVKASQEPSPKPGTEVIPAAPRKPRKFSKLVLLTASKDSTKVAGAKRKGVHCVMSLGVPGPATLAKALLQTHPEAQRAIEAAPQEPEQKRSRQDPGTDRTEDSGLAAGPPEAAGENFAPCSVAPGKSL",
  "assay": "In situ competitive profiling in live MCF7 cells (LFQ): FLYWCH2",
  "type": "cell-based",
  "details": "protein FLYWCH2, 4 h, then 10 µM 24c, n=4",
  "source_text": "In our efforts to determine the direct molecular targets of deoxyelephantopin we first performed a gel-based competitive in situ proteomic profiling assay[41] […] While the greater conformational flexibility of probe 24c could potentially lead to more promiscuous target engagement relatively to deoxyelephantopin, it was favoured based on the fact that an alkyne moiety appended to the rigid scaffold of deoxyelephantopin may hinder some of its interactions. MCF7 cells were pretreated with various concentrations of deoxyelephantopin for 4 h, harvested, lysed and the lysates were treated with the fluorogenic probe 24c-Cy3 (10 μM; Supplementary Fig. 10). […] Furthermore, cells were pretreated with 20 μM concentration of deoxyelephantopin or 24c and the proteomic profiles were compared (Fig. 6b, Supplementary Fig. 11). Multiple bands were detected that were equally competed by both DEP and 24c, thus again confirming that 24c can be used as an acceptable clickable analogue of deoxyelephantopin in pulldown assays. Having established the optimal labelling conditions by SDS–PAGE, we next carried out a mass spectrometry-based competitive profiling assay[42] coupled with the method of stable isotope labelling of amino acids in culture (SILAC)[43]. […]\nFigure 6 Proteome-wide identification of deoxyelephantopin targets. […] Quantification was performed using label-free quantification (LFQ) method (n=4). […]",
  "data": [
    {"smiles": "C=C(C)C(=O)O[C@H]1CC2=C[C@@H](C/C(C)=C/[C@H]3OC(=O)C(=C)[C@H]13)OC2=O", "note": "[deoxyelephantopin]", "values": [
      {"measurement": "LFQ ratio 20 µM Deoxyelephantopin/DMSO with 24c", "value": 0.19}
    ]}
  ]
}
